Source: PMC12040169 (PLOS Biology, 2025)

Test: in vitro
Conditions: human, hela cells, % viability
Compound `COc1ccc(Cl)cc1NC(=O)NCCN1CCCCC1` [CBK268169] has a viability at 28.5 h, 10 µM of 112%.
Compound `CCC(=O)N1CCC(c2cc(C(F)(F)F)n3nc(C)cc3n2)CC1` [CBK284367] has a viability at 28.5 h, 10 µM of 96.9%.
For `COc1ccc2[nH]c3c(c2c1)CCN(CCc1ccc(F)cc1)C3` [CBK082819T], the viability at 28.5 h, 10 µM was 92.3%.
With `S=c1[nH]nc(-c2ccc(Cl)cc2)n1-c1cccnc1` [CBK086427] the viability at 28.5 h, 10 µM was 83.6%.
Work on `Cc1cnccc1N1CCN(C(=O)CCCOc2ccccc2)CC1` [CBK304677] yielded a viability at 28.5 h, 10 µM of 94.8%.
For `O=C(CSc1ccc(-c2ccc(-n3ccnc3)cc2)nn1)NCc1ccco1` [CBK287717], the viability at 28.5 h, 10 µM was 62.2%.
In the case of `Cc1cc2ncc3c(n2n1)NC(c1ccc(Cl)cc1Cl)NC3=O` (stereo not shown) [CBK291167], the viability at 28.5 h, 10 µM is reported as 90.8%.
Work on `O=C(CN1CCOCC1)Nc1sc2c(c1C(=O)Nc1ccc(Cl)cc1)CCC2` [CBK265056] yielded a viability at 28.5 h, 10 µM of 102%.
Compound `Cc1cc(S(=O)(=O)NCC(C)n2nc(C)c(C)c2C)ccc1F` (stereo not shown) [CBK282010] has a viability at 28.5 h, 10 µM of 87.4%.
For `CC(CC(=O)C1C(C)C=CCC1(C)C)NNC(=O)c1ccccc1O` (stereo not shown) [CBK262980], the viability at 28.5 h, 10 µM was 91.6%.
For `Cc1cc2c(cc1C)C(=O)CC1(CCN(C(=O)c3ccco3)CC1)O2` [CBK282819], the viability at 28.5 h, 10 µM was 96%.
Compound `c1nc(OCCN2CCOCC2)cc(N2CCCN(CCN3CCOCC3)CC2)n1` [CBK083647] has a viability at 28.5 h, 10 µM of 103%.
Work on `CCn1cc(CN2CCCN(C(=O)c3ccc(Cl)cn3)CC2)cn1` [CBK304760] yielded a viability at 28.5 h, 10 µM of 84.3%.
With `CN(C)CCN(C)C(=O)c1cc(Br)cnc1N1CCN(C(=O)c2ccco2)CC1` [CBK076514] the viability at 28.5 h, 10 µM was 93.8%.
For `c1ccc(-c2nc3ccccc3nc2N2CCNCC2)cc1` [CBK269574C], the viability at 28.5 h, 10 µM was 85%.
In the case of `Cc1ccc(-c2oncc2C(=O)NCc2cccs2)cc1` [CBK153679], the viability at 28.5 h, 10 µM is reported as 95.7%.
In the case of `Cn1c(CN2C[C@H](O)C[C@H]2c2nc(-c3ccccc3)no2)nc2ccccc21` [CBK288834], the viability at 28.5 h, 10 µM is reported as 78.7%.
`COc1ccc(CNC(=O)C2CCCN(S(C)(=O)=O)C2)cc1OC` (stereo not shown) [CBK299830] showed a viability at 28.5 h, 10 µM of 90.2%.
`COc1cnc(-c2cccc(C(F)(F)F)c2)c(NC(=O)Cc2ccccc2)n1` [CBK145308] gave a viability at 28.5 h, 10 µM of 104%.
For `CNC(=O)c1cccnc1N1CCN(CCCC(c2ccc(F)cc2)c2ccc(F)cc2)CC1` [CBK025309C], the viability at 28.5 h, 10 µM was 95%.
With `CC(C)c1ccnc(C(C)Sc2nc(N)c(Br)c(Cl)n2)c1` (stereo not shown) [CBK016828] the viability at 28.5 h, 10 µM was 86.1%.
For `CCc1nn(CC(=O)NC(C)(C)C)c(=O)c2cc3sc(C)cc3n12` [CBK284124], the viability at 28.5 h, 10 µM was 83.9%.
Compound `Cc1cc(NC(=O)CC2CC2)c2ccccc2n1` [CBK116257] has a viability at 28.5 h, 10 µM of 98.6%.
Work on `N=c1c2c(-c3ccccc3)c(-c3ccccc3)n(Cc3ccco3)c2ncn1CCN1CCOCC1` [CBK268545] yielded a viability at 28.5 h, 10 µM of 93.5%.
`CC(C)CC(=O)N1CCC(n2c(=O)oc3ccc(Cl)cc32)CC1` [CBK285477] showed a viability at 28.5 h, 10 µM of 105%.
For `Cc1ccc(NC(=O)Cn2cnc3c2c(=O)n(C)c(=O)n3C)c(C)c1` [CBK133276], the viability at 28.5 h, 10 µM was 90.6%.
In the case of `COc1ccc(OC)c(CN2CCCN(C)CC2)c1` [CBK261554], the viability at 28.5 h, 10 µM is reported as 96.1%.
Compound `Cc1cccn2cc(C(=O)N3CC(C(=O)N4CCN(c5ccccc5)CC4)C3)nc12` [CBK285663] has a viability at 28.5 h, 10 µM of 101%.
Compound `Cc1cc(CNC(=O)Nc2ccc(F)c(-n3nnnc3C)c2)n(C)n1` [CBK305525] has a viability at 28.5 h, 10 µM of 88.4%.
For `Cc1ccc(S(=O)(=O)N(CC(=O)Nc2ccc3c(c2)OCCO3)Cc2ccccc2F)cc1` [CBK265157], the viability at 28.5 h, 10 µM was 83.3%.
In the case of `COc1cc(S(=O)(=O)Nc2ccc(CC(=O)O)cc2)ccc1Cl` [CBK287019], the viability at 28.5 h, 10 µM is reported as 107%.
In the case of `Clc1ccc2c(c1)CCC(NCC1COc3ccccc3O1)C2` (stereo not shown) [CBK013077C], the viability at 28.5 h, 10 µM is reported as 97.5%.
With `O=C(O)Cc1cc2c(n1Cc1ccc(F)cc1)CCCC2=O` [CBK283866] the viability at 28.5 h, 10 µM was 93.8%.
Work on `COc1ccc(F)cc1-c1ccccc1CC1(C(=O)NCCc2ccccc2)CCOCC1` [CBK286424] yielded a viability at 28.5 h, 10 µM of 97.5%.
`Cc1ccc(Cl)cc1N1CCN(S(=O)(=O)N(C)C)CC1` [CBK270284] gave a viability at 28.5 h, 10 µM of 101%.
`CNS(=O)(=O)c1cc(C(=O)NC2CCCc3ccccc32)n(C)c1` (stereo not shown) [CBK305048] gave a viability at 28.5 h, 10 µM of 103%.
In the case of `CN(C)c1ncc(-c2ccc(F)cc2)c(C2CCCN2C(=O)c2nccc3ccccc23)n1` (stereo not shown) [CBK286086], the viability at 28.5 h, 10 µM is reported as 84.3%.
Work on `O=C(c1ccno1)N1C[C@@H]2OCC(=O)N(CC3CC3)[C@@H]2C1` [CBK289680] yielded a viability at 28.5 h, 10 µM of 83.5%.
In the case of `Cc1cccc(Cl)c1S(=O)(=O)c1ccc2ccnc(N3CCNCC3)c2c1` [CBK036394C], the viability at 28.5 h, 10 µM is reported as 78.9%.
With `CN1CCOc2cc(S(=O)(=O)Nc3nnn[nH]3)ccc21` [CBK062389] the viability at 28.5 h, 10 µM was 99.1%.
Compound `COc1cc(/C=N/NC(=O)CCN2CCN(C)CC2)cc(OC)c1O` [CBK261500] has a viability at 28.5 h, 10 µM of 100%.
`COc1ccc2nc(N3CCc4ccccc4C3)sc2c1` [CBK287493] gave a viability at 28.5 h, 10 µM of 102%.
Work on `CN(c1ncccc1C#N)C1CCN(CCC(N)=O)CC1` [CBK016793] yielded a viability at 28.5 h, 10 µM of 87.2%.
`OC[C@H]1CCCN1c1nc(Br)cn2c(-c3ccccn3)cnc12` [CBK094394] showed a viability at 28.5 h, 10 µM of 100%.
For `CC(CCCC(C)(C)O)Nc1cncc(-c2cccc(Cl)c2)n1` (stereo not shown) [CBK037857], the viability at 28.5 h, 10 µM was 90.1%.
Work on `N#CCCN(CCC#N)C(=O)CN1C(=O)c2ccccc2C1=O` [CBK267100] yielded a viability at 28.5 h, 10 µM of 89%.
Work on `NC(=O)C1(N2CCCCC2)CCN(CC(=O)Nc2ccc(Oc3ccccc3)cc2)CC1` [CBK265774] yielded a viability at 28.5 h, 10 µM of 107%.
`CCc1ccc(NC(=O)N2CCCCC2CCn2ccnc2)cc1` (stereo not shown) [CBK307453] showed a viability at 28.5 h, 10 µM of 110%.
In the case of `O=C(COc1ccc(-c2ccccc2)cc1)N1CCN(S(=O)(=O)c2ccc([N+](=O)[O-])cc2)CC1` [CBK264297], the viability at 28.5 h, 10 µM is reported as 106%.
Work on `Cc1c(C(=O)N(C)Cc2nc3ccccc3s2)nnn1C1CCNCC1` [CBK306501C] yielded a viability at 28.5 h, 10 µM of 85.9%.
In the case of `O=C(CN1CCc2c([nH]c3ccccc23)C12CCN(Cc1ccc(F)cc1)C2)Nc1ccccc1` (stereo not shown) [CBK059450], the viability at 28.5 h, 10 µM is reported as 96%.
With `Cc1ccc(S(=O)(=O)n2c(SCc3ccccc3)nc3ccccc32)cc1` [CBK293933] the viability at 28.5 h, 10 µM was 104%.
With `Cn1c(Cc2ccccc2)nnc1SCCC(=O)Nc1ccccc1` [CBK268874] the viability at 28.5 h, 10 µM was 91.3%.
Compound `COc1ccc(OCC(=O)Nc2cccc(-c3nnc4c5ccccc5c(C)nn34)c2)cc1` [CBK266743] has a viability at 28.5 h, 10 µM of 105%.
Work on `Cn1ccnc1CNc1nc(C(C)(C)C)nc2c1cnn2C` [CBK306894] yielded a viability at 28.5 h, 10 µM of 100%.
Work on `OCCN(CC#CC(O)(c1ccccc1)c1cccc(F)c1)CCO` (stereo not shown) [CBK301210C] yielded a viability at 28.5 h, 10 µM of 91.2%.
For `CC(=O)c1ccc(C(=O)N2CCC3(CC2)CC(=O)c2ccc4ccccc4c2O3)cc1` [CBK156458], the viability at 28.5 h, 10 µM was 104%.
With `COc1cc(CN2CCN(Cc3ccco3)CC2)cc(OC)c1OC` [CBK074520G] the viability at 28.5 h, 10 µM was 88.2%.
In the case of `CCOC(=O)CC(=O)COc1noc2nc(C)cc(C)c12` [CBK269595], the viability at 28.5 h, 10 µM is reported as 98.2%.
`O=C(Cc1cccs1)N1CCC(O)(c2cccnc2)CC1` [CBK283501] showed a viability at 28.5 h, 10 µM of 104%.
For `CCCCC(c1nnn[nH]1)n1nnc2ccccc21` (stereo not shown) [CBK023526], the viability at 28.5 h, 10 µM was 93.6%.
For `Cc1sc2nc(C)n(C3CCN(C(=O)C(C)C)CC3)c(=O)c2c1C` [CBK282414], the viability at 28.5 h, 10 µM was 88.7%.
Work on `O=C(c1cc2c(s1)CCC2)N1CCC[C@H]1[C@H](O)c1nccs1` [CBK284287] yielded a viability at 28.5 h, 10 µM of 92.5%.
For `CC(Oc1ccccc1Br)c1nc(-c2nonc2N)no1` (stereo not shown) [CBK026982], the viability at 28.5 h, 10 µM was 86.2%.
